Reference: ChEMBL document CHEMBL3877336, “Structure-Based Design of ASK1 Inhibitors as Potential Agents for Heart Failure” (ACS Med Chem Lett, 2017)

Experiments:
[1] = target: T1, Mitogen-activated protein kinase kinase kinase 5 (Homo sapiens, UniProt Q99683); test: Inhibition of recombinant human N-terminal GST-tagged ASK1 catalytic domain (654 to 971 residues) expressed in baculovirus infected sf21 cells using STK3 as substrate after 60 mins by HTRF assay
T1 sequence (Q99683 whole entry): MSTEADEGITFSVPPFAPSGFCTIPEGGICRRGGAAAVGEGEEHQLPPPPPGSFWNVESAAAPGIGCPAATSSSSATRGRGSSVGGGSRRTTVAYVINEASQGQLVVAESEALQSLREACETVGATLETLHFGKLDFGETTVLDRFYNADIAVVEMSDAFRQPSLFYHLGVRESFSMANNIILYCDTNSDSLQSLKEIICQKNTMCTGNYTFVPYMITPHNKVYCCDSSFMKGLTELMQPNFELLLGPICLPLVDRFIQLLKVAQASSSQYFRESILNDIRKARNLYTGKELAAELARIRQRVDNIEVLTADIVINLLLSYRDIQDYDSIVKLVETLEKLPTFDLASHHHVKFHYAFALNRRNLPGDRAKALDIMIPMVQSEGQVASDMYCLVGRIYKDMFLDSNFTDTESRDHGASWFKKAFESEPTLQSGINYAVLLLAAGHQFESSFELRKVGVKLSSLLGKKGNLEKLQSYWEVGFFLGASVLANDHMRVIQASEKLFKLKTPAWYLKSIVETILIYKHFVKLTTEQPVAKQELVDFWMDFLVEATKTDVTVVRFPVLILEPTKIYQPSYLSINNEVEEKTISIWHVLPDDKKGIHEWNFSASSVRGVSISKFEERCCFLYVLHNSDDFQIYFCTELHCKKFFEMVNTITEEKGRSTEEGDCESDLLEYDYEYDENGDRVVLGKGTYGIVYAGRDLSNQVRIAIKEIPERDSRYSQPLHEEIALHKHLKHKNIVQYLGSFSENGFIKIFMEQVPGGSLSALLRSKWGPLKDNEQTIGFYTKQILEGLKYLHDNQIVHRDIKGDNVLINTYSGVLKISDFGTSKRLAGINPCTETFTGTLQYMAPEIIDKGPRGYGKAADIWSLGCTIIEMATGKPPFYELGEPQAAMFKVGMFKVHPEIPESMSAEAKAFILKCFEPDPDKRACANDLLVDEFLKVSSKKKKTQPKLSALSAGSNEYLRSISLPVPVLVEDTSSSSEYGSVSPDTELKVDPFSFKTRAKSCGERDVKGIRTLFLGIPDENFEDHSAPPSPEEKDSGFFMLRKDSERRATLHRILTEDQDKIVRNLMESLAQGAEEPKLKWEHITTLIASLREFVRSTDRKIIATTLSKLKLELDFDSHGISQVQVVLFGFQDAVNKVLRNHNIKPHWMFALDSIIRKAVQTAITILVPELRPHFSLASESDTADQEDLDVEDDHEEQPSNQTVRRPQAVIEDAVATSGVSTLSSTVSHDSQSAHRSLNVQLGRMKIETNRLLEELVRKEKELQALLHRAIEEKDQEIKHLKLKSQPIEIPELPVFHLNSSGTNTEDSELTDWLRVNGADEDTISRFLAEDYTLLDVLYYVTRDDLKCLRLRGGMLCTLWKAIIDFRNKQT

[2] = target: T1, Mitogen-activated protein kinase kinase kinase 5; test: Inhibition of human ASK1 expressed in HEK293 cells assessed as inhibition of H2O2-induced JNK phosphorylation preincubated for 30 mins followed by H2O2 addition measured after 30 mins by ELISA; assay type: cell-based
Rattus norvegicus [3] = test: Anti-ischemic activity in Langendorff perfused Sprague-Dawley rat heart assessed as reduction in infarct size at 2.25 mg/kg, po administered via gavage administered 1 hr prior to ischemia/reperfusion relative to control; assay type: functional; set-up: scale not given: the % may be the effect or the level left
MDR1 (human) [4] = test: Apparent permeability from apical to basolateral side in pig LLC-PK1 cells expressing human MDR1 at 10 uM after 2 hrs by LC-MS/MS analysis; assay type: ADME, cell-based, Sus scrofa
[5] = Intrinsic clearance in rat liver microsomes at 1 uM up to 30 mins in presence of NADPH by UPLC-MS/MS analysis; assay type: ADME; conditions: read-out: CLH
MDR1 (human) [6] = test: Apparent permeability from basolateral to apical side in pig LLC-PK1 cells expressing human MDR1 at 10 uM after 2 hrs by LC-MS/MS analysis; assay type: ADME, cell-based, Sus scrofa
[7] = Intrinsic clearance in human liver microsomes at 1 uM up to 30 mins in presence of NADPH by UPLC-MS/MS analysis; assay type: ADME; conditions: read-out: CLH
[8] = Solubility of the compound in pH 1 solution at 155 uM after overnight incubation by HPLC method; assay type: physicochemical; conditions: buffer, pH 1, 155 µM
Rattus norvegicus [9] = test: Anti-ischemic activity in Langendorff perfused Sprague-Dawley rat heart assessed as reduction in infarct size at 2.25 mg/kg, po administered via gavage 8 hrs prior to ischemia/reperfusion relative to control; assay type: functional; set-up: scale not given: the % may be the effect or the level left

Compound	IC50 [1]	EC50 [2]	further results
CC[C@@H](C)n1cnnc1-c1cccc(N2Cc3ccccc3C2=O)n1	50.1 nM		
C[C@@H](CO)n1cnnc1-c1cccc(N2Cc3ccccc3C2=O)n1	31.6 nM		
CC(C)Oc1ccc2c(c1)C(=O)N(c1cccc(-c3nncn3C(C)C)n1)C2	15.8 nM	31.6 nM	
CC[C@H](C)n1cnnc1-c1cccc(N2Cc3ccccc3C2=O)n1	20 nM		
CC(C)n1cnnc1-c1cccc(N2Cc3ccc(OC[C@@H]4CN(C)CCO4)cc3C2=O)n1	6.31 nM	6.31 nM	
CC(C)n1cnnc1-c1cccc(N2Cc3ccccc3C2=O)n1	12.6 nM		
CC(CCO)n1cnnc1-c1cccc(N2Cc3ccccc3C2=O)n1 (stereo not drawn)	39.8 nM		
CC(C)Oc1ccc2c(c1)C(=O)N(c1cccc(-c3nncn3[C@H](C)CO)n1)C2	5.01 nM	6.31 nM	Activity (Rattus norvegicus [3]): 42%; Papp A→B at 2 h, 10 µM (MDR1 (human) [4]): 5.49 ×10⁻⁶ cm/s; CLint scaled at 1 µM [5]: < 16.6 mL/min/kg; Papp B→A at 2 h, 10 µM (MDR1 (human) [6]): 26.2 ×10⁻⁶ cm/s; CLint scaled at 1 µM [7]: < 8.3 mL/min/kg; solubility [8]: Soluble; Activity (Rattus norvegicus [9]): 24%
C[C@H](CO)n1cnnc1-c1cccc(N2Cc3ccccc3C2=O)n1	10 nM		
COCCOc1ccc2c(c1)C(=O)N(c1cccc(-c3nncn3C(C)C)n1)C2	7.94 nM	15.8 nM	
Cc1cc(F)c(C(=O)Nc2ccccn2)cc1-n1cnc(C2CC2)c1	6310 nM		

Further compounds by falling IC50 [1], results first:

IC50 [1]	EC50 [2]	Compound	further results
794 nM		O=C1c2ccccc2CN1c1cccc(-c2nncn2CC2CCO2)n1 (stereo not drawn)	
50.1 nM		Cc1ccc(C(=O)Nc2cccc(-c3nncn3C(C)C)n2)c(F)c1	
20 nM		CC(CC#N)n1cnnc1-c1cccc(N2Cc3ccccc3C2=O)n1 (stereo not drawn)	
12.6 nM		CC(CF)n1cnnc1-c1cccc(N2Cc3ccccc3C2=O)n1 (stereo not drawn)	
7.94 nM	12.6 nM	COCCOc1ccc2c(c1)C(=O)N(c1cccc(-c3nncn3[C@H](C)CO)n1)C2	
